Measured values from patent US7625910B2, “Co-crystal” (AstraZeneca AB, priority 2006, dated 2009).

Columns and labels:
[1] = test system: human colorectal (SW620, HCT116, Colo205) and lung (A549, Calu-6) tumour xenografts; assay: tumour growth inhibition in human tumour xenografts; type: in vivo; conditions: panel of human colorectal (SW620, HCT116, Colo205) and lung (A549, Calu-6) tumour xenografts; with statistical significance
[2] = pro-drug conversion in human plasma; type: in vitro ADME
Dynamic Vapour Sorption = type: physicochemical; conditions: 25° C.; for hygroscopicity: 0-95% RH, two cycles, batches from Method 1 and Method 2 (FIGS. 4 and 5)
Experimental: Analytical Instrument: Surface Measurements Systems Dynamic Vapour Sorption Analyser. About 5 mg of material contained in a quartz holder at a specified temperature was subjected to humidified nitrogen at a flow rate of 200 ml/minute of nitrogen at 25° C. at the following relative humidities (RH): 0, 20, 40, 60, 80, 95, 80, 60, 40, 20, 0% RH in duplicate. The weight of the material at a particular relative humidity was monitored until it was stable according to a weight criteria of 0.002% weight change per minute averaged over 10 minutes. If the weight was still changing then it stayed at a particular relative humidity until the weight was stable (up to a maximum time of 12 hours).

conversion of pro-drug to active moiety AZD1152 HQPA [2] | Compound | inhibition of tumour growth [1] | level of water (hydration state) with relative humidity (Dynamic Vapour Sorption; 0-95% RH (FIG. 6), dehydrated to tetrahydrated state and higher) | hygroscopicity (Dynamic Vapour Sorption) | hygroscopicity (Dynamic Vapour Sorption; listed as maleate co-crystal of AZD1152)
rapidly and completely converted | CCN(CCCOc1ccc2c(Nc3cc(CC(=O)Nc4cccc(F)c4)n[nH]3)ncnc2c1)CCOP(=O)(O)O [AZD1152, 2-{ethyl[3-({4-[(5-{2-[(3-fluorophenyl)amino]-2-oxoethyl}-1H-pyrazol-3-yl)amino]quinazolin-7-yl}oxy)propyl]amino}ethyl dihydrogen phosphate] | inhibit tumour growth | quite variable depending on the relative humidity of storage |  | 
 | CCN(CCCOc1ccc2c(Nc3cc(CC(=O)Nc4cccc(F)c4)[nH]n3)ncnc2c1)CCOP(=O)(O)O.O=C(O)/C=C\C(=O)O [AZD1152 maleate co-crystal, 2-{ethyl[3-({4-[(5-{2-[(3-fluorophenyl)amino]-2-oxoethyl}-1H-pyrazol-3-yl)amino]quinazolin-7-yl}oxy)propyl]amino}ethyl dihydrogen phosphate.maleate] |  |  | non-hygroscopic | substantially non-hygroscopic
